In patent EP4768499A1, “MACROCYCLIC PEPTIDE COMPOUND HAVING CELL MEMBRANE PERMEABILITY AND METABOLIC STABILITY, AND LIBRARY CONTAINING SAME” (Chugai Seiyaku Kabushiki Kaisha, priority 2023, dated 2025):
Starred links: 1 amine or outer side, 2 acyl side, 3 side chain; linkers in the order of their positions; H or OH if unused. Positions of bridges follow the written chain, without caps; N, C: chain ends. Non-standard residues stand in square brackets, D forms with d. Residues, ends and D or L forms follow the SMILES beside them. *: point of attachment. NMeF = CN[C@@H](Cc1ccccc1)C(=O)O; NMeI = CC[C@H](C)[C@H](NC)C(=O)O; NMeT = CN[C@H](C(=O)O)[C@@H](C)O; hPhe = N[C@@H](CCc1ccccc1)C(=O)O; NMeβAla = CN(CCC(=O)[*:2])[*:1]; NMeL = CN[C@@H](CC(C)C)C(=O)O; dNMeV = CN[C@@H](C(=O)O)C(C)C; NMeV = CN[C@H](C(=O)O)C(C)C; NMeAbu = CC[C@H](NC)C(=O)O; NMeA = CN[C@@H](C)C(=O)O; Piperidide = C1CCN(*)CC1; Abu = CC[C@H](N)C(=O)O; NBuGly = CCCCNCC(=O)O; Sar = CNCC(=O)O; tBu = CC(C)(C)*

Tests used:
Caco-2 cells = test: Membrane permeability test using Caco-2 cells with preincubation; type: in vitro ADME; conditions: Caco-2 cells, preincubation 20 to 24 hours; apical FaSSIF/HBSS 1% DMSO pH 6.0, basal HBSS 4% BSA pH 7.4; basal sample at 180 minutes
[1] = as above; type: in vitro ADME; conditions: Caco-2; preincubation 20 to 24 hours; Apical FaSSIF/HBSS pH 6.0, Basal HBSS 4% BSA pH 7.4; 180 minutes; read-out: Caco2 Papp
[2] = Metabolic stability test: liver microsomal stability assay; type: in vitro ADME, mouse; conditions: mouse liver microsomes 0.5 mg protein/mL, compound 1 µM; for microsomal CLint at 1 µM: male, pH 7.4, presence of NADPH, read-out: Mouse Hepatic Microsome CLh,int NADPH(+); for Mouse Hepatic Microsome CLh,int NADPH(-): absence of NADPH

Structure (SMILES) | Caco2 Papp (10^-6 cm/sec) (Caco-2 cells) | Papp A→B [1] [×10⁻⁶ cm/s] | microsomal CLint at 1 µM [2] [µL/min/mg] | Mouse Hepatic Microsome CLh,int NADPH(-) [2] [µL/min/mg Protein]
CC[C@H](C)[C@@H]1NC(=O)[C@H](CC(C)C)N(C)C(=O)[C@H](CC(C)C)NC(=O)[C@H](C)N(C)C(=O)C[C@@H](C(=O)N2CCCCC2)NC(=O)[C@H](CC(C)C)NC(=O)[C@@H]2CCCN2C(=O)[C@H](CC(C)C)N(C)C(=O)[C@H]([C@@H](C)O)NC(=O)[C@H]([C@@H](C)CC)N(C)C(=O)[C@H](Cc2ccccc2)N(C)C(=O)[C@H](C)NC(=O)[C@H](Cc2ccccc2)N(C)C(=O)[C@H](CC(C)C)NC1=O [pd027] ([NMeA]L[NMeL]IL[NMeF]A[NMeF][NMeI]T[NMeL]PLD-Piperidide; lactam N-14) | 0.02 10^-6 cm/sec | 0.02 | 42.4 | 31.1
CC[C@@H]1NC(=O)[C@H]([C@@H](C)O)N(C)C(=O)[C@H](CC(C)C)N(C)C(=O)[C@H]([C@@H](C)CC)NC(=O)[C@H](Cc2ccccc2)N(C)C(=O)CN(C)C(=O)C[C@@H](C(=O)N2CCCCC2)NC(=O)[C@H](C(C)C)N(C)C(=O)[C@H](CC)NC(=O)[C@H](COC(C)(C)C)NC(=O)[C@H](C)N(C)C(=O)[C@H](CC)NC(=O)[C@H](CC(C)C)N(C)C(=O)[C@H](CCc2ccccc2)NC1=O [pd028] ([Sar][NMeF]I[NMeL][NMeT][Abu][hPhe][NMeL][Abu][NMeA]S(tBu)[Abu][NMeV]D-Piperidide; lactam N-14) | 0.03 10^-6 cm/sec | 0.03 | 37.2 | 22.1
CC[C@H](C)[C@@H]1NC(=O)[C@H](CC(C)C)N(C)C(=O)C[C@@H](C(=O)N2CCCCC2)NC(=O)[C@H](Cc2ccccc2)N(C)C(=O)[C@H](C(C)C)NC(=O)[C@@H]2CCCN2C(=O)[C@H]([C@@H](C)CC)NC(=O)[C@H](CC)N(C)C(=O)[C@H](C(C)C)N(C)C(=O)[C@H](CC(C)C)NC(=O)[C@H](CC(C)C)N(C)C(=O)[C@H]([C@@H](C)O)NC(=O)[C@H](Cc2ccccc2)NC(=O)CN(C)C1=O [pd029] ([NMeL]I[Sar]FT[NMeL]L[NMeV][NMeAbu]IPV[NMeF]D-Piperidide; lactam N-14) | 0.02 10^-6 cm/sec | 0.02 | 38.2 | 36.6
CC[C@@H]1NC(=O)[C@H](Cc2ccccc2)N(C)C(=O)[C@H](CC(C)C)NC(=O)CNC(=O)[C@H]([C@@H](C)O)N(C)C(=O)[C@H](CC(C)C)N(C)C(=O)[C@H]([C@@H](C)CC)NC(=O)[C@H](Cc2ccccc2)N(C)C(=O)CN(C)C(=O)C[C@@H](C(=O)N2CCCCC2)NC(=O)[C@H](C(C)C)N(C)C(=O)[C@H](CC(C)C)NC(=O)[C@H](C(C)C)NC(=O)[C@H](C)N(C)C1=O [pd030] ([Sar][NMeF]I[NMeL][NMeT]GL[NMeF][Abu][NMeA]VL[NMeV]D-Piperidide; lactam N-14) | 0.04 10^-6 cm/sec | 0.04 | 33.7 | 28.5
CC[C@@H]1NC(=O)[C@H](C(C)C)N(C)C(=O)[C@H](CC(C)C)NC(=O)[C@H](CC(C)C)N(C)C(=O)[C@H]([C@@H](C)O)NC(=O)CN(C)C(=O)[C@H]([C@@H](C)CC)NC(=O)[C@H](Cc2ccccc2)N(C)C(=O)[C@H](CC(C)C)N(C)C(=O)C[C@@H](C(=O)N2CCCCC2)NC(=O)[C@H](Cc2ccccc2)N(C)C(=O)[C@H](COC(C)(C)C)NC(=O)[C@@H]2CCCN2C(=O)[C@H]([C@@H](C)CC)NC1=O [pd031] ([NMeL][NMeF]I[Sar]T[NMeL]L[NMeV][Abu]IPS(tBu)[NMeF]D-Piperidide; lactam N-14) | 0.04 10^-6 cm/sec | 0.04 | 40.3 | 32.3
CC(C)C[C@@H]1NC(=O)[C@H](CC(C)C)N(C)C(=O)[C@H](C(C)C)N(C)C(=O)[C@H](CCc2ccccc2)NC(=O)[C@H]([C@@H](C)O)N(C)C(=O)[C@@H](C(C)C)NC(=O)C[C@@H](C(=O)N2CCCCC2)NC(=O)[C@H](C(C)C)N(C)C(=O)[C@H](CC(C)C)NC(=O)[C@H](Cc2ccccc2)N(C)C(=O)[C@@H]2CCCN2C(=O)[C@H](C(C)C)NC(=O)[C@H](CC(C)C)N(C)C(=O)CN(C)C1=O [pd032] ([dV][NMeT][hPhe][NMeV][NMeL]L[Sar][NMeL]VP[NMeF]L[NMeV]D-Piperidide; lactam N-14) | 0.72 10^-6 cm/sec | 0.72 | 28.9 | 28.7
CC[C@@H]1NC(=O)[C@H](C(C)C)N(C)C(=O)[C@H](CC(C)C)NC(=O)[C@H](Cc2ccccc2)N(C)C(=O)[C@@H](C(C)C)N(C)C(=O)C[C@@H](C(=O)N2CCCCC2)NC(=O)[C@H](CC(C)C)NC(=O)[C@H](C(C)C)N(C)C(=O)[C@H](Cc2ccccc2)N(C)C(=O)[C@H](CC(C)C)NC(=O)[C@H](CC(C)C)N(C)C(=O)[C@H](C)N(C)C(=O)[C@H]([C@@H](C)O)NC(=O)[C@H](CC(C)C)N(C)C1=O [pd033] ([dNMeV][NMeF]L[NMeV][Abu][NMeL]T[NMeA][NMeL]L[NMeF][NMeV]LD-Piperidide; lactam N-14) | 0.03 10^-6 cm/sec | 0.03 | 47.8 | 34.1
CC[C@H](C)[C@@H]1NC(=O)[C@H](C)N(C)C(=O)[C@H]([C@@H](C)O)NC(=O)[C@H](Cc2ccccc2)N(C)C(=O)[C@H](COC(C)(C)C)NC(=O)[C@H](CC(C)C)N(C)C(=O)[C@H](C(C)C)NC(=O)CN(C)C(=O)[C@H](Cc2ccccc2)N(C)C(=O)[C@H]([C@@H](C)CC)NC(=O)[C@H](CC(C)C)N(C)C(=O)CCN(C)C(=O)C[C@@H](C(=O)N2CCCCC2)NC(=O)[C@H](CC(C)C)N(C)C1=O [pd034] ([NMeβAla][NMeL]I[NMeF][Sar]V[NMeL]S(tBu)[NMeF]T[NMeA]I[NMeL]D-Piperidide; lactam N-14) | 0.27 10^-6 cm/sec | 0.27 | 46.8 | 36.0
CCCCN1CC(=O)N[C@@H](CC(C)C)C(=O)N(C)[C@@H]([C@@H](C)CC)C(=O)N[C@@H](CC)C(=O)N(C)[C@@H]([C@@H](C)O)C(=O)N(C)[C@@H](Cc2ccccc2)C(=O)N[C@@H]([C@@H](C)CC)C(=O)N(C)[C@@H](CC(C)C)C(=O)N[C@H](C(=O)N2CCCCC2)CC(=O)N(C)[C@@H](C)C(=O)N[C@@H](CC(C)C)C(=O)N(C)[C@@H](CC(C)C)C(=O)N(C)[C@@H](Cc2ccccc2)C(=O)N[C@@H](CC)C1=O [pd035] ([NMeA]L[NMeL][NMeF][Abu][NBuGly]L[NMeI][Abu][NMeT][NMeF]I[NMeL]D-Piperidide; lactam N-14) | <0.11 10^-6 cm/sec | < 0.11 | 28.3 | 27.5
CC[C@H](C)[C@H]1C(=O)N[C@@H](CC(C)C)C(=O)N(C)[C@@H](CC(C)C)C(=O)N2CCC[C@H]2C(=O)N(C)[C@@H](C(C)C)C(=O)N[C@H](C(=O)N2CCCCC2)CC(=O)N[C@@H](C)C(=O)N(C)[C@@H](CC(C)C)C(=O)N[C@@H](C(C)C)C(=O)N(C)[C@@H](Cc2ccccc2)C(=O)N(C)[C@@H](CC(C)C)C(=O)N[C@@H](C)C(=O)N(C)[C@@H](Cc2ccccc2)C(=O)N[C@@H]([C@@H](C)O)C(=O)N1C [pd036] (A[NMeL]V[NMeF][NMeL]A[NMeF]T[NMeI]L[NMeL]P[NMeV]D-Piperidide; lactam N-14) | 0.28 10^-6 cm/sec | 0.28 | 35.4 | 25.7
CC[C@H](C)[C@H]1C(=O)N[C@@H]([C@@H](C)O)C(=O)N(C)CC(=O)N(C)[C@@H](CC(C)C)C(=O)N[C@@H](CC(C)C)C(=O)N[C@H](C(=O)N2CCCCC2)CC(=O)N(C)[C@@H](C)C(=O)N[C@@H](CC(C)C)C(=O)N(C)[C@@H](CC(C)C)C(=O)N[C@@H](C(C)C)C(=O)N(C)CCC(=O)N(C)[C@@H](Cc2ccccc2)C(=O)N[C@@H](C)C(=O)N(C)[C@@H](Cc2ccccc2)C(=O)N1C [pd037] ([NMeA]L[NMeL]V[NMeβAla][NMeF]A[NMeF][NMeI]T[Sar][NMeL]LD-Piperidide; lactam N-14) | 0.26 10^-6 cm/sec | 0.26 | 18.3 | 17.7
CC[C@@H]1NC(=O)[C@H]([C@@H](C)O)N(C)C(=O)CCN(C)C(=O)[C@H]([C@@H](C)CC)NC(=O)[C@H](Cc2ccccc2)N(C)C(=O)CN(C)C(=O)C[C@@H](C(=O)N2CCCCC2)NC(=O)[C@H]([C@@H](C)CC)N(C)C(=O)[C@H](COC(C)(C)C)NC(=O)[C@@H]2CCCN2C(=O)[C@H](CCc2ccccc2)NC(=O)[C@H](CC)N(C)C(=O)[C@H](C)NC(=O)[C@H](CC(C)C)N(C)C1=O [pd038] ([Sar][NMeF]I[NMeβAla][NMeT][Abu][NMeL]A[NMeAbu][hPhe]PS(tBu)[NMeI]D-Piperidide; lactam N-14) | 0.04 10^-6 cm/sec | 0.04 | 12 | 18.1
